# Assay results reported in patent publication US6525001B1, “Substituted pyrimidine and pyridine herbicides” (Mid-American Commercialization Corporation, priority 1997, dated 2003).
# Assays:
# Format in all cases: in vivo
# [1] = system: bamyardgrass (Echinochloa crus-galli); assay: Test B flood test
# Outline: (§1)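 Each value is a visual injury score relative to controls, with 10 meaning complete control and 0 no effect. Evaluation took place twelve to sixteen days after the 2-leaf-stage plants were treated and kept in the greenhouse.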
# [2] = system: duck salad (Heteranthera limosa); assay: Test B flood test
# Outline: as §1
# [3] = system: rice (Oryza sativa); assay: Test B flood test
# Outline: as §1
# [4] = system: smallflower flatsedge (Cyperus difformis); assay: Test B flood test
# Outline: as §1
# [5] = system: wheat (Triticum aestivum); assay: Test B pre-/postemergence; design: key: 0 is no effect; 10 is complete control
# Description: (§2) Seeds of bedstraw (Galium aparine), blackgrass (Alopecurus myosuroides), broadleaf signalgrass (Brachiaria decumbens), cocklebur (Xanthium strumarium), corn (Zea mays), crabgrass (Digitaria sanguinalis), giant foxtail (Setaria faberii), lambsquarters (Chenopodium album), momingglory (Ipomoea hederacea), pigweed (Amaranthus retroflexus), rape (Brassica napus), soybean (Glycine max), sugar beet (Beta vulgaris), velvetleaf (Abutilon theophrasti), wheat (Triticum aestivum), wild oat (Avena fatua) and purple nutsedge (Cyperus rotundus) tubers were planted and treated preemergence with test chemicals formulated in a non-phytotoxic solvent mixture which included a surfactant.
# (§3) At the same time, these crop and weed species were also treated with postemergence applications of test chemicals formulated in the same manner. Plants ranged in height from 2 to 18 cm (1- to 4-leaf stage) for postemergence treatments. Plant species in the flood test consisted of rice (Oryza sativa), smallflower flatsedge (Cyperus difformis), duck salad (Heteranthera limosa) and bamyardgrass (Echinochloa crus-galli) grown to the 2-leaf stage for testing. Treated plants and controls were maintained in a greenhouse for twelve to sixteen days, after which all species were compared to controls and visually evaluated. Plant response ratings, summarized in Table B, are based on a scale of 0 to 10 where 0 is no effect and 10 is complete control. A dash (−) response means no test result.
# [6] = system: momingglory (Ipomoea hederacea); assay: Test B pre-/postemergence; design: key: 0 is no effect; 10 is complete control
# Description: as §2, §3
# [7] = system: blackgrass (Alopecurus myosuroides); assay: Test B pre-/postemergence; design: key: 0 is no effect; 10 is complete control
# Description: as §2, §3
# [8] = system: rape (Brassica napus); assay: Test B pre-/postemergence; design: key: 0 is no effect; 10 is complete control
# Description: as §2, §3
# [9] = system: crabgrass (Digitaria sanguinalis); assay: Test B pre-/postemergence; design: key: 0 is no effect; 10 is complete control
# Description: as §2, §3
# [10] = system: soybean (Glycine max); assay: Test B pre-/postemergence; design: key: 0 is no effect; 10 is complete control
# Description: as §2, §3
# [11] = system: giant foxtail (Setaria faberii); assay: Test B pre-/postemergence; design: key: 0 is no effect; 10 is complete control
# Description: as §2, §3
# [12] = system: velvetleaf (Abutilon theophrasti); assay: Test B pre-/postemergence; design: key: 0 is no effect; 10 is complete control
# Description: as §2, §3
# [13] = system: purple nutsedge (Cyperus rotundus); assay: Test B pre-/postemergence; design: key: 0 is no effect; 10 is complete control
# Description: as §2, §3
# [14] = system: broadleaf signalgrass (Brachiaria decumbens); assay: Test B pre-/postemergence; design: key: 0 is no effect; 10 is complete control
# Description: as §2, §3
# [15] = system: cocklebur (Xanthium strumarium); assay: Test B pre-/postemergence; design: key: 0 is no effect; 10 is complete control
# Description: as §2, §3
# [16] = system: bedstraw (Galium aparine); assay: Test B pre-/postemergence; design: key: 0 is no effect; 10 is complete control
# Description: as §2, §3
# [17] = system: pigweed (Amaranthus retroflexus); assay: Test B pre-/postemergence; design: key: 0 is no effect; 10 is complete control
# Description: as §2, §3
# [18] = system: sugar beet (Beta vulgaris); assay: Test B pre-/postemergence; design: key: 0 is no effect; 10 is complete control
# Description: as §2, §3
# [19] = system: corn (Zea mays); assay: Test B pre-/postemergence; design: key: 0 is no effect; 10 is complete control
# Description: as §2, §3
# [20] = system: wild oat (Avena fatua); assay: Test B pre-/postemergence; design: key: 0 is no effect; 10 is complete control
# Description: as §2, §3
# [21] = Rate 62 g/ha, Postemergence (flood test)
# [22] = Rate 125 g/ha, Postemergence, flood test
# [23] = Rate 250 g/ha, Postemergence (flood test species)
structure (smiles),measurement,setting,value
Cc1cnc(-c2ccc(C(F)(F)F)cc2)nc1C(C#N)c1cccc(C(F)(F)F)c1 (racemic) [Compound 17],"Plant response rating, Barnyardgrass",[1]; [21],4
same,"Plant response rating, Barnyardgrass",[1]; [22],4
same,"Plant response rating, Barnyardgrass",[1]; [23],6
same,"Plant response rating, Ducksalad",[2]; [21],3
same,"Plant response rating, Ducksalad",[2]; [22],5
same,"Plant response rating, Ducksalad",[2]; [23],5
same,"Plant response rating, Rice",[3]; [21],4
same,"Plant response rating, Rice",[3]; [22],4
same,"Plant response rating, Rice",[3]; [23],6
same,"Plant response rating, S. Flatsedge",[4]; [21],2
same,"Plant response rating, S. Flatsedge",[4]; [22],3
same,"Plant response rating, S. Flatsedge",[4]; [23],5
same,"Plant response rating, Wheat","[5]; Rate 62 g/ha, Postemergence",3
same,Wheat plant response rating,"[5]; Rate 62 g/ha, Preemergence",0
same,"Plant response rating, Wheat","[5]; Rate 125 g/ha, Postemergence",3
same,Wheat plant response rating,"[5]; Rate 125 g/ha, Preemergence",1
same,"Plant response rating, Wheat","[5]; Rate 250 g/ha, Postemergence",4
same,"Plant response rating, Wheat","[5]; Rate 250 g/ha, Preemergence",3
same,"Plant response rating, Morningglory","[6]; Rate 62 g/ha, Postemergence",7
same,Morningglory plant response rating,"[6]; Rate 62 g/ha, Preemergence",0
same,"Plant response rating, Morningglory","[6]; Rate 125 g/ha, Postemergence",8
same,Morningglory plant response rating,"[6]; Rate 125 g/ha, Preemergence",1
same,"Plant response rating, Morningglory","[6]; Rate 250 g/ha, Postemergence",8
same,"Plant response rating, Morningglory","[6]; Rate 250 g/ha, Preemergence",2
same,"Plant response rating, Blackgrass","[7]; Rate 62 g/ha, Postemergence",3
same,Blackgrass plant response rating,"[7]; Rate 62 g/ha, Preemergence",2
same,"Plant response rating, Blackgrass","[7]; Rate 125 g/ha, Postemergence",6
same,Blackgrass plant response rating,"[7]; Rate 125 g/ha, Preemergence",6
same,"Plant response rating, Blackgrass","[7]; Rate 250 g/ha, Postemergence",7
same,"Plant response rating, Blackgrass","[7]; Rate 250 g/ha, Preemergence",9
same,"Plant response rating, Rape","[8]; Rate 62 g/ha, Postemergence",7
same,Rape plant response rating,"[8]; Rate 62 g/ha, Preemergence",0
same,"Plant response rating, Rape","[8]; Rate 125 g/ha, Postemergence",8
same,Rape plant response rating,"[8]; Rate 125 g/ha, Preemergence",2
same,"Plant response rating, Rape","[8]; Rate 250 g/ha, Postemergence",8
same,"Plant response rating, Rape","[8]; Rate 250 g/ha, Preemergence",3
same,"Plant response rating, Crabgrass","[9]; Rate 62 g/ha, Postemergence",4
same,Crabgrass plant response rating,"[9]; Rate 62 g/ha, Preemergence",3
same,"Plant response rating, Crabgrass","[9]; Rate 125 g/ha, Postemergence",4
same,Crabgrass plant response rating,"[9]; Rate 125 g/ha, Preemergence",8
same,"Plant response rating, Crabgrass","[9]; Rate 250 g/ha, Postemergence",4
same,"Plant response rating, Crabgrass","[9]; Rate 250 g/ha, Preemergence",9
same,"Plant response rating, Soybean","[10]; Rate 62 g/ha, Postemergence",3
same,Soybean plant response rating,"[10]; Rate 62 g/ha, Preemergence",0
same,"Plant response rating, Soybean","[10]; Rate 125 g/ha, Postemergence",3
same,Soybean plant response rating,"[10]; Rate 125 g/ha, Preemergence",0
same,"Plant response rating, Soybean","[10]; Rate 250 g/ha, Postemergence",8
same,"Plant response rating, Soybean","[10]; Rate 250 g/ha, Preemergence",0
same,"Plant response rating, Giant foxtail","[11]; Rate 62 g/ha, Postemergence",2
same,Giant foxtail plant response rating,"[11]; Rate 62 g/ha, Preemergence",5
same,"Plant response rating, Giant foxtail","[11]; Rate 125 g/ha, Postemergence",4
same,Giant foxtail plant response rating,"[11]; Rate 125 g/ha, Preemergence",10
same,"Plant response rating, Giant foxtail","[11]; Rate 250 g/ha, Postemergence",5
same,"Plant response rating, Giant foxtail","[11]; Rate 250 g/ha, Preemergence",10
same,"Plant response rating, Velvetleaf","[12]; Rate 62 g/ha, Postemergence",2
same,Velvetleaf plant response rating,"[12]; Rate 62 g/ha, Preemergence",0
same,"Plant response rating, Velvetleaf","[12]; Rate 125 g/ha, Postemergence",4
same,Velvetleaf plant response rating,"[12]; Rate 125 g/ha, Preemergence",1
same,"Plant response rating, Velvetleaf","[12]; Rate 250 g/ha, Postemergence",7
same,"Plant response rating, Velvetleaf","[12]; Rate 250 g/ha, Preemergence",1
same,"Plant response rating, Nutsedge","[13]; Rate 62 g/ha, Postemergence",0
same,Nutsedge plant response rating,"[13]; Rate 62 g/ha, Preemergence",0
same,"Plant response rating, Nutsedge","[13]; Rate 125 g/ha, Postemergence",0
same,Nutsedge plant response rating,"[13]; Rate 125 g/ha, Preemergence",0
same,"Plant response rating, Nutsedge","[13]; Rate 250 g/ha, Postemergence",0
same,"Plant response rating, Nutsedge","[13]; Rate 250 g/ha, Preemergence",0
same,"Plant response rating, B. signalgrass","[14]; Rate 62 g/ha, Postemergence",4
same,B. signalgrass plant response rating,"[14]; Rate 62 g/ha, Preemergence",3
same,"Plant response rating, B. signalgrass","[14]; Rate 125 g/ha, Postemergence",5
same,B. signalgrass plant response rating,"[14]; Rate 125 g/ha, Preemergence",7
same,"Plant response rating, B. signalgrass","[14]; Rate 250 g/ha, Postemergence",7
same,"Plant response rating, B. signalgrass","[14]; Rate 250 g/ha, Preemergence",9
same,"Plant response rating, Cocklebur","[15]; Rate 62 g/ha, Postemergence",4
same,Cocklebur plant response rating,"[15]; Rate 62 g/ha, Preemergence",0
same,"Plant response rating, Cocklebur","[15]; Rate 125 g/ha, Postemergence",8
same,Cocklebur plant response rating,"[15]; Rate 125 g/ha, Preemergence",0
same,"Plant response rating, Cocklebur","[15]; Rate 250 g/ha, Postemergence",8
same,"Plant response rating, Cocklebur","[15]; Rate 250 g/ha, Preemergence",0
same,"Plant response rating, Bedstraw","[16]; Rate 62 g/ha, Postemergence",8
same,Bedstraw plant response rating,"[16]; Rate 62 g/ha, Preemergence",1
same,"Plant response rating, Bedstraw","[16]; Rate 125 g/ha, Postemergence",9
same,Bedstraw plant response rating,"[16]; Rate 125 g/ha, Preemergence",3
same,"Plant response rating, Bedstraw","[16]; Rate 250 g/ha, Postemergence",9
same,"Plant response rating, Bedstraw","[16]; Rate 250 g/ha, Preemergence",5
same,"Plant response rating, Redroot pigweed","[17]; Rate 62 g/ha, Postemergence",9
same,Redroot pigweed plant response rating,"[17]; Rate 62 g/ha, Preemergence",4
same,"Plant response rating, Redroot pigweed","[17]; Rate 125 g/ha, Postemergence",10
same,Redroot pigweed plant response rating,"[17]; Rate 125 g/ha, Preemergence",9
same,"Plant response rating, Redroot pigweed","[17]; Rate 250 g/ha, Postemergence",10
same,"Plant response rating, Redroot pigweed","[17]; Rate 250 g/ha, Preemergence",10
same,"Plant response rating, Sugarbeets","[18]; Rate 62 g/ha, Postemergence",9
same,Sugarbeets plant response rating,"[18]; Rate 62 g/ha, Preemergence",1
same,"Plant response rating, Sugarbeets","[18]; Rate 125 g/ha, Postemergence",10
same,Sugarbeets plant response rating,"[18]; Rate 125 g/ha, Preemergence",8
same,"Plant response rating, Sugarbeets","[18]; Rate 250 g/ha, Postemergence",10
same,"Plant response rating, Sugarbeets","[18]; Rate 250 g/ha, Preemergence",9
same,"Plant response rating, Corn","[19]; Rate 62 g/ha, Postemergence",2
same,Corn plant response rating,"[19]; Rate 62 g/ha, Preemergence",0
same,"Plant response rating, Corn","[19]; Rate 125 g/ha, Postemergence",2
same,Corn plant response rating,"[19]; Rate 125 g/ha, Preemergence",0
same,"Plant response rating, Corn","[19]; Rate 250 g/ha, Postemergence",3
same,"Plant response rating, Corn","[19]; Rate 250 g/ha, Preemergence",1
same,"Plant response rating, Wild oats","[20]; Rate 62 g/ha, Postemergence",3
same,Wild oats plant response rating,"[20]; Rate 62 g/ha, Preemergence",2
same,"Plant response rating, Wild oats","[20]; Rate 125 g/ha, Postemergence",4
same,Wild oats plant response rating,"[20]; Rate 125 g/ha, Preemergence",5
same,"Plant response rating, Wild oats","[20]; Rate 250 g/ha, Postemergence",5
same,"Plant response rating, Wild oats","[20]; Rate 250 g/ha, Preemergence",8
